# Test results as given in article PMC7497403, “Development of Potent PfCLK3 Inhibitors Based on TCMDC-135051 as a New Class of Antimalarials” (Journal of Medicinal Chemistry, 2020).
# Assays:
# Assay in all cases: Kinase screen
# Format in all cases: biochemical
# [1] = target: CDK2-Cyclin A (Homo sapiens, UniProt P24941)
# Description: (§1) With verapamil used as a positive control.
# (§2) V. Distribution coefficient (LogD7.4)
# [2] = target: ERK5 (Homo sapiens, UniProt Q13164)
# Description: as §1, §2
# [3] = target: HER4 (Homo sapiens, UniProt Q15303)
# Description: as §1, §2
# [4] = target: IRAK4 (Homo sapiens, UniProt Q9NWZ3)
# Description: as §1, §2
# HER4, sequence (Q15303 26-1308): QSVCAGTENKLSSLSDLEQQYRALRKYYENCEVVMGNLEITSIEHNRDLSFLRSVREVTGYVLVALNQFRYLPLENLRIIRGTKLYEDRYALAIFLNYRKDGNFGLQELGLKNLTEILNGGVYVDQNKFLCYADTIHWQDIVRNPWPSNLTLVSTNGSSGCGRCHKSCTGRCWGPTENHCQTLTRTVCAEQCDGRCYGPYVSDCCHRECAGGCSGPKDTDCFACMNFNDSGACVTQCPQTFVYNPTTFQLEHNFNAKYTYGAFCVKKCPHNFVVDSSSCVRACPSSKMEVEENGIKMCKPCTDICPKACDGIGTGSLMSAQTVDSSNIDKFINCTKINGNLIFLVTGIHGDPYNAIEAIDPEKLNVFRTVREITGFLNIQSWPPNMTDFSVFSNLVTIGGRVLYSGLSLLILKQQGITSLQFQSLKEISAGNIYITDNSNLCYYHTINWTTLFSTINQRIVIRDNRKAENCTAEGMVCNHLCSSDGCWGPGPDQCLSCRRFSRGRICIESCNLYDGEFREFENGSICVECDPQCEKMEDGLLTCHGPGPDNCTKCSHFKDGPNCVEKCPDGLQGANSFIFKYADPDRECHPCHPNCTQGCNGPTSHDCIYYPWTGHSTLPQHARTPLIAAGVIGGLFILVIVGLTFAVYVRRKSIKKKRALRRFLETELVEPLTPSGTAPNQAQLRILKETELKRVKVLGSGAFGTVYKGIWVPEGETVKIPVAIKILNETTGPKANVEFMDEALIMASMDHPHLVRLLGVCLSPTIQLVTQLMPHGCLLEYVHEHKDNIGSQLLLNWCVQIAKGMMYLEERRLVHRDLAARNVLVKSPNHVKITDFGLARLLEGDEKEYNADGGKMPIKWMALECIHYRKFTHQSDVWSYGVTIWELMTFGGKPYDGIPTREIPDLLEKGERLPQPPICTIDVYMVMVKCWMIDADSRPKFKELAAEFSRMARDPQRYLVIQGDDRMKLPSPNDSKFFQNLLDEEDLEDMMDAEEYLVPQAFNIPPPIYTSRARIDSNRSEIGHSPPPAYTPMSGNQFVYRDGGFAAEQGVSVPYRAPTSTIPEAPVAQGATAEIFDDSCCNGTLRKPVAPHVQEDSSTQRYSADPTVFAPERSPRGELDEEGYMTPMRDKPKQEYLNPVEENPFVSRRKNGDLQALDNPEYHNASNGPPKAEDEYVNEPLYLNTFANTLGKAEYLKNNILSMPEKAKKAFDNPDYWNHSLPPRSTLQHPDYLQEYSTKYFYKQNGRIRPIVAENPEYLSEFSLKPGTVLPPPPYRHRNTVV
# ERK5, sequence (Q13164 whole entry): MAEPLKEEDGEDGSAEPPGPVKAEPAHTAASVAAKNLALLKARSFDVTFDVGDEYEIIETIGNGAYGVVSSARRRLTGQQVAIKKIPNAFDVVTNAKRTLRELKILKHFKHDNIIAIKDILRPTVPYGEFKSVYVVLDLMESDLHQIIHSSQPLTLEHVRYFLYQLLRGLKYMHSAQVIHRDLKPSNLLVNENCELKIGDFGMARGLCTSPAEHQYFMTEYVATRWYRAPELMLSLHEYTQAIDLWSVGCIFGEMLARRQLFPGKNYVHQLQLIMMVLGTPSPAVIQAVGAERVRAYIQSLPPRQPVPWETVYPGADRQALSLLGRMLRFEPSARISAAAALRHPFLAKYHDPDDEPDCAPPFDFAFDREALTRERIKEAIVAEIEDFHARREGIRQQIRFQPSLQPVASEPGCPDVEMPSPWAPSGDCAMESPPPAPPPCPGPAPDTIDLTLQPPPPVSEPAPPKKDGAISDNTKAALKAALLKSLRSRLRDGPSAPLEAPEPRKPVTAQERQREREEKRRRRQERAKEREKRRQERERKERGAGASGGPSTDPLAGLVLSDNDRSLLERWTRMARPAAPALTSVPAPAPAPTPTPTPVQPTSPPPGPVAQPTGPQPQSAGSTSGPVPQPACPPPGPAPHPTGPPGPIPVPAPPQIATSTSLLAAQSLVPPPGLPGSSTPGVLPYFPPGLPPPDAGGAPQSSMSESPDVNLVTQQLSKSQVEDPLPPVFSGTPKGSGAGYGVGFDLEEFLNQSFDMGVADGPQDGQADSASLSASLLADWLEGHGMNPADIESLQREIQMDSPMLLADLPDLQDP
# IRAK4, sequence (Q9NWZ3 whole entry): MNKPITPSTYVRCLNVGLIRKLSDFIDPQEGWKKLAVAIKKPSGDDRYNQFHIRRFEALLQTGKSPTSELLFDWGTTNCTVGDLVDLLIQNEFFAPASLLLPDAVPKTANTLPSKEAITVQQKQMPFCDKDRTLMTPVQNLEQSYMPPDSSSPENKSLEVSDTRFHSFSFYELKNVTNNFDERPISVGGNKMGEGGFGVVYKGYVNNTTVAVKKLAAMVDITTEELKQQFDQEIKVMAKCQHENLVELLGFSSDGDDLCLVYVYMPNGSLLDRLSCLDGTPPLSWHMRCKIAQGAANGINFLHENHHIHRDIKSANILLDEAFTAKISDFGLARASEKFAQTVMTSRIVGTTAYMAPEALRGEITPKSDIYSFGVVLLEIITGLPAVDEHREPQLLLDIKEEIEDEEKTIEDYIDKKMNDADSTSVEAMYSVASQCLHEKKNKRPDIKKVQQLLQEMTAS
structure (smiles),measurement,setting,value
"CCN(CC)Cc1ccc(OC)c(-c2cc3c(-c4ccc(C(=O)O)c(C(C)C)c4)ccnc3[nH]2)c1 [analogue 1, 4-(2-(5-((Diethylamino)methyl)-2-methoxyphenyl)-1H-pyrrolo[2,3-b]pyridin-4-yl)-2-isopropylbenzoic Acid]",activity at 1 µM,[1],12%
same,activity at 1 µM,[2],54%
same,activity at 1 µM,[3],112%
same,activity at 1 µM,[4],24%
